Experimental data published in PubChem BioAssay (NCI).
Several values for one entry are separate records, joined by “and”; a condition that tells them apart may be missing. Identical values can stand only once.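 Cells were grown in 96-well plates and exposed to each compound for 48 hours at five concentrations; endpoints were interpolated linearly between bracketing concentrations, or set to the highest concentration if not reached. The concentration for 50% growth inhibition is given as GI50. TGI: concentration producing complete growth inhibition.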

Tests used:
Assay in all cases: inhibition of tumour cell growth, NCI panel, 48 h
T-47D breast = system: T-47D breast
SF-539 CNS = system: SF-539 CNS
SK-MEL-5 melanoma = system: SK-MEL-5 melanoma
SR leukemia = system: SR leukemia
MDA-MB-435 = system: MDA-MB-435
BT-549 breast = system: BT-549 breast
786-0 renal = system: 786-0 renal
DLD-1 colon = system: DLD-1 colon
M19-MEL melanoma = system: M19-MEL melanoma
DMS 114 small cell lung = system: DMS 114 small cell lung
SNB-78 CNS = system: SNB-78 CNS
DMS 273 small cell lung = system: DMS 273 small cell lung

Structure (SMILES) | TGI (T-47D breast) | TGI (SF-539 CNS) | TGI (SK-MEL-5 melanoma) | TGI (SR leukemia) | TGI (MDA-MB-435) | TGI (BT-549 breast) | TGI (DLD-1 colon) | TGI (M19-MEL melanoma) | TGI (DMS 114 small cell lung) | TGI (SNB-78 CNS) | TGI (DMS 273 small cell lung) | other results
Cn1c(=O)c(Cl)c(N=[N+]=[N-])c2ccccc21 | > 100 µM | > 100 µM | > 100 µM | > 100 µM |  |  |  |  |  |  |  | 
CCN1CCC(O)(c2ccc(O)cc2)C(C(=O)c2ccc(O)cc2)C1 (stereo not given) | 32.9 µM |  | 22.7 µM | 43.4 µM | 33.3 µM |  |  |  |  |  |  | 
O=c1oc2ccc([N+](=O)[O-])cc2cc1Br | > 100 µM | > 100 µM | > 100 µM | > 100 µM | > 100 µM | > 100 µM |  |  |  |  |  | TGI (786-0 renal): > 100 µM
CC1=C2C3OC(=O)C(C)C3CCC2(C)C=CC1=Nc1ccccc1 (stereo not given) |  | > 100 µM | > 100 µM |  |  |  | > 100 µM | > 100 µM | > 100 µM | > 100 µM | > 100 µM | 
CC(=O)Nc1ccc(Sc2nnc(NC(C)=O)s2)cc1 | > 100 µM | > 100 µM | > 100 µM | > 100 µM | > 100 µM |  |  |  |  |  |  | 
CCOC(=O)C(OP(=O)(OCC)OCC)C(F)(F)F (stereo not given) | > 100 µM | > 100 µM |  | > 100 µM | > 100 µM | > 100 µM |  |  |  |  |  | 
COC1C(O)C(C)OC(OC2CCC3(C)C(CCC4C3C(O)CC3(C)C(C5=CC(=O)OC5)CCC43O)C2)C1O (stereo not given) | 2.59 µM | 0.22 µM | 0.501 µM | > 100 µM | 1.24 µM | 0.429 µM |  |  |  |  |  | 
C=CCCCCCCCCC(=O)O |  | 212 µM | 183 µM |  |  |  | 163 µM | 449 µM | 389 µM | 607 µM | 289 µM | 
COc1cc(C=O)cc(O)c1O |  | > 100 µM |  | > 100 µM |  |  | > 100 µM | > 100 µM | > 100 µM | > 100 µM | > 100 µM | TGI (786-0 renal): > 100 µM
O=C1c2ccccc2C(=O)N1CC(CN1C(=O)c2ccccc2C1=O)(C(=O)OCc1ccccc1)C(=O)OCc1ccccc1 | > 100 µM |  | > 100 µM | > 100 µM | > 100 µM | > 100 µM |  |  |  |  |  | 
O=c1c([OH2+])c(-c2ccc(O)cc2[O-])oc2cc(O)cc([O-])c12.O=c1c([OH2+])c(-c2ccc(O)cc2[O-])oc2cc(O)cc([O-])c12.[Ti+4] |  | > 100 µM | > 100 µM |  |  |  | > 100 µM | > 100 µM | > 100 µM | > 100 µM | > 100 µM | GI50 (DLD-1 colon): > 100 µM; GI50 (M19-MEL melanoma): > 100 µM; GI50 (DMS 114 small cell lung): > 100 µM; TGI (786-0 renal): > 100 µM; GI50 (SNB-78 CNS): > 100 µM; GI50 (DMS 273 small cell lung): > 100 µM
COc1cccc2c1C(=O)c1c(O)c3c(c(O)c1C2=O)C[C@@](O)(C(=O)CO)CC3OC1CC(NCCCC(OC(C)=O)OC(C)=O)C(O)C(C)O1 (stereo not given in full) |  | 0.00445 µM and 0.00115 µM | 0.00028 µM | 0.000288 µM |  |  |  | 0.000323 µM | 0.000341 µM |  |  | GI50 (SF-539 CNS): < 0.0001 µM; GI50 (M19-MEL melanoma): < 0.0001 µM; GI50 (SK-MEL-5 melanoma): < 0.0001 µM; GI50 (DMS 114 small cell lung): < 0.0001 µM
CCOC(=O)C(=O)NC12CC3CC(CC(C3)C1)C2 |  | > 100 µM | > 100 µM |  |  |  | > 100 µM |  | > 100 µM |  | > 100 µM | 
